Results as given in US9579319B2 (Redx Pharma PLC, priority 2013, dated 2017).

tested on: Hedgehog signalling pathway; test: Gli-reporter NIH3T3 luciferase assay (Hedgehog pathway inhibition); type: cell-based; conditions: NIH3T3; Gli-reporter NIH-3T3 cells, recombinant mouse sonic hedgehog, 24 hours, luminescence; read-out: Category (Hedgehog pathway inhibition activity, IC50)
Description: In vitro biological evaluation of compounds of the invention was carried out using the procedure detailed below. The procedure provides activity data for the compounds of the invention against the Hedgehog signalling pathway. The activity is represented as IC50 values in Table 12 below.
The Gli-reporter NIH3T3 cell line (BPS Biosciences) was grown according to the suppliers recommendations. Briefly, cells were maintained in growth medium (DMEM supplemented with 10% calf serum, 1% Penicillin/Streptomycin, and 500 µg/mL of Geneticin) and grown at 37° C., 5% CO2. In order to passage cells they were first rinsed with phosphate buffered saline before the addition of 0.05% Trypsin/EDTA. Fresh growth media was added and the cells were transferred to a centrifuge tube, spun and resuspended at an appropriate cell density.
Gli-reporter NIH-3T3 cells were seeded at 20,000 cells/well into 96 well, poly-D-lysine coated white clear bottomed full area TC plates in growth media (without geneticin). Three wells were left with just media as cell free controls. Cells were then incubated for 24 hours at 37° C. in a 5% CO2.
Serial dilutions of the test compounds were prepared in 100% DMSO. 10 μl of compound or DMSO from each well was pipetted into a sterile, 0.5 ml deep well conical bottomed 96 well plate (intermediate plate). 190 μl of warmed assay media (Opti-MEM supplemented with 0.5% calf serum, 1% non-essential amino acids, 1 mM sodium pyruvate, 10 mM HEPES, 1% penicillin/Streptomycin) was then added to each well and mixed five times at 180 μl by electronic pipette to ensure homogeneity of the compound solution. This 1:20 dilution gives a top concentration of 50 μM in 5% DMSO, 95% assay media. 10 μl was pipetted from each well of the intermediate plate into a second deep well sterile plate. 490 μl of warm assay media was then added to each well and mixed five times at 300 μl. This gives a final top concentration of 1 μM in 0.1% DMSO.
After the 24 hour incubation, media was carefully removed by pipette and replaced with 45 μl of compound dilutions in triplicate. This was incubated for one hour at 37° C. in a 5% CO2. After an hour, 5 μl 10 μg/mL recombinant mouse sonic hedgehog (R&D Systems) was added to each well and the plates were incubated for a further 24 hours at 37° C., 5% CO2.
After 24 hours, plates were removed from the incubator and left to acclimatise to room temperature for 20 minutes. 50 μl of OneGLO assay reagent (Promega) was then added to each well and the plates gently shaken for a further 30 minutes. Plates were then read for luminescence on the EnVision plate reader (PerkinElmer).

| Compound | IC50 [nM] |
| --- | --- |
| Cn1nccc1-c1nnc(N2CCC(NCc3ccc(F)nc3C(F)(F)F)CC2)c2ccccc12 [Example 18, N-[[6-fluoro-2-(trifluoromethyl)-3-pyridyl]methyl]-1-[4-(2-methylpyrazol-3-yl)phthalazin-1-yl]piperidin-4-amine] | 10 to 200 |
| COc1cccc(NC(=O)NC2CCN(c3nnc(-c4ccnn4C)c4ccccc34)CC2)c1 [Example 24, 1-(3-methoxyphenyl)-3-[1-[4-(2-methylpyrazol-3-yl)phthalazin-1-yl]-4-piperidyl]urea] | < 10 |
| Cc1c(-c2ccnn2C)nnc(N2CCC(N(C)Cc3ccc(F)cc3C(F)(F)F)CC2)c1C [Example 41, 1-[4,5-dimethyl-6-(2-methylpyrazol-3-yl)pyridazin-3-yl]-N-[[4-fluoro-2-(trifluoromethyl)phenyl]methyl]-N-methyl-piperidin-4-amine] | 10 to 200 |
| Cn1nccc1-c1nnc(N2CCC(NC(=O)Nc3ccc(C#N)cc3)CC2)c2ccccc12 [Example 32, 1-(4-cyanophenyl)-3-[1-[4-(2-methylpyrazol-3-yl)phthalazin-1-yl]-4-piperidyl]urea] | < 10 |
| Cn1nccc1-c1nnc(N2CCC(NCc3ccccc3OC(F)(F)F)CC2)c2ccccc12 [Example 36, 1-[4-(2-methylpyrazol-3-yl)phthalazin-1-yl]-N-[[2-(trifluoromethoxy)phenyl]methyl]piperidin-4-amine] | 10 to 200 |
| CN(Cc1ccccc1C#N)C1CCN(c2nnc(-c3ccnn3C)c3ccccc23)CC1 [Example 33, 2-[[methyl-[1-[4-(2-methylpyrazol-3-yl)phthalazin-1-yl]-4-piperidyl]amino]methyl]benzonitrile] | 10 to 200 |
| Cn1nccc1-c1nnc(N2CCC(NC(=O)Nc3ccc(OC(F)F)cc3)CC2)c2ccccc12 [Example 26, 1-[4-(difluoromethoxy)phenyl]-3-[1-[4-(2-methylpyrazol-3-yl)phthalazin-1-yl]-4-piperidyl]urea] | < 10 |
| CN(Cc1ccc(F)cc1C(F)(F)F)C1CCCN(c2nnc(-c3ccnn3C)c3ccccc23)C1 (stereo not shown) [Example 54, N-[[4-fluoro-2-(trifluoromethyl)phenyl]methyl]-N-methyl-1-[4-(2-methylpyrazol-3-yl)phthalazin-1-yl]piperidin-3-amine] | 200 to 2000 |
| CN(Cc1ccc(F)cc1C(F)(F)F)C1CCN(c2nnc(-c3ccnn3C)c3ccncc23)CC1 [Example 47, N-[[4-fluoro-2-(trifluoromethyl)phenyl]methyl]-N-methyl-1-[1-(2-methylpyrazol-3-yl)pyrido[3,4-d]pyridazin-4-yl]piperidin-4-amine] | < 10 |
| Cn1nccc1-c1nnc(N2CCC(N(Cc3ccc(F)cc3C(F)(F)F)C(=O)C(F)(F)F)CC2)c2ccccc12 [Example 56, 2,2,2-trifluoro-N-[[4-fluoro-2-(trifluoromethyl)phenyl]methyl]-N-[1-[4-(2-methylpyrazol-3-yl)phthalazin-1-yl]-4-piperidyl]acetamide] | 10 to 200 |
| Cn1nccc1-c1nnc(N2CCC(NCc3ccccc3)CC2)c2ccccc12 [Example 57, N-benzyl-1-[4-(2-methylpyrazol-3-yl)phthalazin-1-yl]piperidin-4-amine] | 200 to 2000 |
| CN(C1CCN(c2nnc(-c3ccnn3C)c3ccccc23)CC1)S(=O)(=O)c1ccc(F)cc1C(F)(F)F [Example 48, 4-fluoro-N-methyl-N-[1-[4-(2-methylpyrazol-3-yl)phthalazin-1-yl]-4-piperidyl]-2-(trifluoromethyl)benzenesulfonamide] | < 10 |

same assay, conditions: NIH3T3; Gli-reporter NIH-3T3 cells, recombinant mouse sonic hedgehog, 24 hours, luminescence; read-out: Gli luc IC50

| Compound | IC50 [nM] |
| --- | --- |
| Cc1c(-c2ccnn2C)nnc(N2CCC(N(C)C(=O)NC(C)(C)C)CC2)c1C [Example 152, 3-tert-butyl-1-[1-[4,5-dimethyl-6-(2-methylpyrazol-3-yl)pyridazin-3-yl]-4-piperidyl]-1-methyl-urea] | > 200 |
| CN(C(=O)NC(C)(C)C)C1CCN(c2nnc(-c3ccnn3C)c3ncccc23)CC1 [Example 129, 3-tert-butyl-1-methyl-1-[1-[8-(2-methylpyrazol-3-yl)pyrido[2,3-d]pyridazin-5-yl]-4-piperidyl]urea] | > 200 |
| COc1cc(-c2nnc(N3CCC(NS(=O)(=O)c4ccc(F)cc4C(F)(F)F)CC3)c(C)c2C)ccn1 [Example 172, 4-fluoro-N-[1-[6-(2-methoxy-4-pyridyl)-4,5-dimethyl-pyridazin-3-yl]-4-piperidyl]-2-(trifluoromethyl)benzenesulfonamide] | > 1000 |
| COc1ccc(-c2nnc(N3CCC(N(C)Cc4ccc(F)cc4C(F)(F)F)CC3)c(C)c2C)cn1 [Example 110, N-[[4-fluoro-2-(trifluoromethyl)phenyl]methyl]-1-[6-(6-methoxy-3-pyridyl)-4,5-dimethyl-pyridazin-3-yl]-N-methyl-piperidin-4-amine] | 10 to 200 |
| Cc1c(-c2ccncc2)nnc(N2CCC(NS(=O)(=O)c3ccc(F)cc3C(F)(F)F)CC2)c1C [Example 119, N-[1-[4,5-dimethyl-6-(4-pyridyl)pyridazin-3-yl]-4-piperidyl]-4-fluoro-2-(trifluoromethyl)benzenesulfonamide] | 10 to 200 |
| Cn1nccc1-c1nnc(N2CCC(CNCc3ccc(F)cc3C(F)(F)F)C2)c2ccccc12 (stereo not shown) [Example 140, 1-[4-fluoro-2-(trifluoromethyl)phenyl]-N-[[1-[4-(2-methylpyrazol-3-yl)phthalazin-1-yl]pyrrolidin-3-yl]methyl]methanamine] | 10 to 200 |
| CN(Cc1cccc(C#N)c1)C1CCN(c2nnc(-c3ccnn3C)c3ccccc23)CC1 [Example 168, 3-[[methyl-[1-[4-(2-methylpyrazol-3-yl)phthalazin-1-yl]-4-piperidyl]amino]methyl]benzonitrile] | 10 to 200 |
| CN(Cc1ccc(F)nc1C(F)(F)F)C1CCN(c2nnc(-c3ccnn3C)c3ccccc23)CC1 [Example 160, N-[[6-fluoro-2-(trifluoromethyl)-3-pyridyl]methyl]-N-methyl-1-[4-(2-methylpyrazol-3-yl)phthalazin-1-yl]piperidin-4-amine] | < 10 |
| CC(NC1CCN(c2nnc(-c3ccnn3C)c3ccccc23)CC1)c1ccc(F)cc1C(F)(F)F (stereo not shown) [Example 143, N-[1-[4-fluoro-2-(trifluoromethyl)phenyl]ethyl]-1-[4-(2-methylpyrazol-3-yl)phthalazin-1-yl]piperidin-4-amine] | 10 to 200 |
| CN(C1CCN(c2nnc(-c3ccnn3C)c3ccncc23)CC1)S(=O)(=O)c1ccc(F)cc1C(F)(F)F [Example 103, 4-fluoro-N-methyl-N-[1-[1-(2-methylpyrazol-3-yl)pyrido[3,4-d]pyridazin-4-yl]-4-piperidyl]-2-(trifluoromethyl)benzenesulfonamide] | 10 to 200 |
| CN(Cc1ccc(F)cc1C(F)(F)F)C1CCN(c2nnc(-c3ccnn3C)c3cccnc23)CC1 [Example 135, N-[[4-fluoro-2-(trifluoromethyl)phenyl]methyl]-N-methyl-1-[5-(2-methylpyrazol-3-yl)pyrido[2,3-d]pyridazin-8-yl]piperidin-4-amine] | 10 to 200 |
| CSc1nccc(CN(C)C2CCN(c3nnc(-c4ccnn4C)c(C)c3C)CC2)n1 [Example 93, 1-[4,5-dimethyl-6-(2-methylpyrazol-3-yl)pyridazin-3-yl]-N-methyl-N-[(2-methylsulfanylpyrimidin-4-yl)methyl]piperidin-4-amine] | > 200 |
| Cc1c(-c2ccnn2C)nnc(N2CCC(N(C)C(=O)Nc3ccc(F)cc3F)CC2)c1C [Example 127, 3-(2,4-difluorophenyl)-1-[1-[4,5-dimethyl-6-(2-methylpyrazol-3-yl)pyridazin-3-yl]-4-piperidyl]-1-methyl-urea] | > 200 |
| O=C(Nc1ccc(F)cc1C(F)(F)F)NC1CCN(c2nnc(-c3ccncc3)c3ccncc23)CC1 [Example 99, 1-[4-fluoro-2-(trifluoromethyl)phenyl]-3-[1-[1-(4-pyridyl)pyrido[3,4-d]pyridazin-4-yl]-4-piperidyl]urea] | < 10 |
| Cn1nccc1-c1nnc(N2CCC(Nc3ccc(F)cc3C(F)(F)F)CC2)c2c1CCC2 [Example 142, N-[4-fluoro-2-(trifluoromethyl)phenyl]-1-[1-(2-methylpyrazol-3-yl)-6,7-dihydro-5H-cyclopenta[d]pyridazin-4-yl]piperidin-4-amine] | 10 to 200 |
| COc1ccc(-c2nnc(N3CCC(NCc4ccc(F)cc4C(F)(F)F)CC3)c(C)c2C)cn1 [Example 120, N-[[4-fluoro-2-(trifluoromethyl)phenyl]methyl]-1-[6-(6-methoxy-3-pyridyl)-4,5-dimethyl-pyridazin-3-yl]piperidin-4-amine] | 10 to 200 |
